For assay [1], the target named is soluble human BACE1 catalytic domain (Homo sapiens (Human), UniProt P56817). In words: BACE-1 Ki Assay (BACE-1 HTRF FRET Assay). The note with it: Ki calculated from IC50 using the Cheng-Prusoff equation; QSY7-APPswe-Eu substrate 200 nM, pH 5.0. Type of assay: biochemical. How it is done: In another embodiment, the compounds of the invention comprise the example compounds shown in the table below, or a tautomer thereof, or a pharmaceutically acceptable salt of said compound or said tautomer. Examples 2 to 42 were prepared using the method similar to Ex. 1. Example 44 to 51 were synthesized using the method similar to Ex. 43. BACE-1 values reported in this table were measured using BACE-1 Ki Assay (BACE-1 HTRF FRET Assay).
• Reagents: Na^+-Acetate pH 5.0; 1% Brij-35; Glycerol; Dimethyl Sulfoxide (DMSO); Recombinant human soluble BACE1 catalytic domain (>95% pure); APP Swedish mutant peptide substrate (QSY7-APP^swe-Eu): QSY7-EISEVNLDAEFC-Europium-amide.
A homogeneous time-resolved FRET assay can be used to determine IC50 values for inhibitors of the soluble human BACE1 catalytic domain. This assay monitors the increase of 620 nm fluorescence that resulted from BACE1 cleavage of an APPswedish APP^swe mutant peptide FRET substrate (QSY7-EISEVNLDAEFC-Europium-amide). This substrate contains an N-terminal QSY7 moiety that serves as a quencher of the C-terminal Europium fluorophore (620 nm Em). In the absence of enzyme activity, 620 nm fluorescence is low in the assay and increased linearly over 3 hours in the presence of uninhibited BACE1 enzyme. Inhibition of BACE1 cleavage of the QSY7-APP^swe-Eu substrate by inhibitors is manifested as a suppression of 620 nm fluorescence.
Varying concentrations of inhibitors at 3× the final desired concentration in a volume of 10 ul are preincubated with purified human BACE1 catalytic domain (3 nM in 10 μl) for 30 minutes at 30° C. in reaction buffer containing 20 mM Na-Acetate pH 5.0, 10% glycerol, 0.1% Brij-35 and 7.5% DSMO. Reactions are initiated by addition of 10 μl of 600 nM QSY7-APP^swe-Eu substrate (200 nM final) to give a final reaction volume of 30 μl in a 384 well Nunc HTRF plate. The reactions are incubated at 30° C. for 1.5 hours. The 620 nm fluorescence is then read on a Rubystar HTRF plate reader (BMG Labtechnologies) using a 50 millisecond delay followed by a 400 millisecond acquisition time window. Inhibitor IC50 values are derived from non-linear regression analysis of concentration response curves. Ki values are then calculated from IC50 values using the Cheng-Prusoff equation using a previously determined […] of 8 μM for the QSY7-APP^swe-Eu substrate at BACE1.

The target in assay [2] is purified human autoBACE-2 (Homo sapiens (Human), UniProt Q9Y5Z0). The assay can be described thus: BACE-2 Assay (BACE-HTRF assay). Type of assay: biochemical. The conditions noted are these: Ki calculated from IC50 using the Cheng-Prusoff equation; QSY7-EISEVNLDAEFC-Eu-amide substrate 200 nM, pH 5.0. On the procedure:
Inhibitor IC50s at purified human autoBACE-2 are determined in a time-resolved endpoint proteolysis assay that measures hydrolysis of the QSY7-EISEVNLDAEFC-Eu-amide FRET peptide substrate (BACE-HTRF assay). BACE-mediated hydrolysis of this peptide results in an increase in relative fluorescence (RFU) at 620 nm after excitation with 320 nm light. Inhibitor compounds, prepared at 3× the desired final concentration in 1×BACE assay buffer (20 mM sodium acetate pH 5.0, 10% glycerol, 0.1% Brij-35) supplemented with 7.5% DMSO are pre-incubated with an equal volume of autoBACE-2 enzyme diluted in 1×BACE assay buffer (final enzyme concentration 1 nM) in black 384-well NUNC plates for 30 minutes at 30° C. […] DMSO is present at […] final concentration in the assay. Following laser excitation of sample wells at 320 nm, the fluorescence signal at 620 nm is collected for 400 ms following a 50 μs delay on a RUBYstar HTRF plate reader (BMG Labtechnologies). Raw RFU data is normalized to maximum (1.0 nM BACE/DMSO) and minimum (no enzyme/DMSO) RFU values. IC50s are determined by nonlinear regression analysis (sigmoidal dose response, variable slope) of percent inhibition data with minimum and maximum values set to 0 and 100 percent respectively. Similar IC50s are obtained when using raw RFU data. The Ki values are calculated from the IC50 using the Cheng-Prusoff equation.

Each structure is given as a SMILES string. pKi: −log10 of the molar value.

Sequence of purified human autoBACE-2 (Q9Y5Z0 63-473 limits assumed): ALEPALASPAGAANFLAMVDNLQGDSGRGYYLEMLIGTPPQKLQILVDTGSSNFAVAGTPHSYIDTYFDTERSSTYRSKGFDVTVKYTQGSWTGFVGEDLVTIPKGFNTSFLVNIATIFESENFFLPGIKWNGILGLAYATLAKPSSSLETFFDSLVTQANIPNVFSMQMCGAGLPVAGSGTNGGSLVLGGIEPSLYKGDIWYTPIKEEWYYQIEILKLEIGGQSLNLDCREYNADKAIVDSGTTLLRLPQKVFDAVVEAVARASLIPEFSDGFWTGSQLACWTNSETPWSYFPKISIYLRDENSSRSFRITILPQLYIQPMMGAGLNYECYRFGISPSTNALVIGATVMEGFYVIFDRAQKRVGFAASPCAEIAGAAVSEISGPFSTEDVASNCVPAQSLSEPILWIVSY
Sequence of soluble human BACE1 catalytic domain (P56817 75-416): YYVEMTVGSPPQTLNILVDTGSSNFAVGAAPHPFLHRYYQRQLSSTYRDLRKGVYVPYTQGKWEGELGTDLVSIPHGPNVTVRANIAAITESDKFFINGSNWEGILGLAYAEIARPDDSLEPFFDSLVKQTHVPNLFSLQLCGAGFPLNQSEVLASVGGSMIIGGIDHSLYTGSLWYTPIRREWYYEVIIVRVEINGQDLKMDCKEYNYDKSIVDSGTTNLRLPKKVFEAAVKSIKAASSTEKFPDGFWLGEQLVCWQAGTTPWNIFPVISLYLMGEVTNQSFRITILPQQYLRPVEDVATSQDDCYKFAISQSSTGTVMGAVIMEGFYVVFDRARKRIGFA

As to `C[C@@]1(c2cc(-c3cccc(C(F)(F)F)c3)ccc2F)Cc2ncncc2C(=N)N1` [Example 6, (7S)-7-[4-fluoro-3′-(trifluoromethyl)biphenyl-3-yl]-7-methyl-7,8-dihydropyrido[4,3-d]pyrimidin-5(6H)-imine], the negative logarithm of the Ki (pKi) (commonly the negative decadic logarithm of the Ki, by convention in mol/L) in assay [1] was 5.52; in assay [2], 6.26.

Take `Cc1ncc2c(n1)C[C@@](C)(c1cc(-c3cccc(C#N)c3)cs1)NC2=N` [Example 23, 3-{5-[(7S)-5-imino-2,7-dimethyl-5,6,7,8-tetrahydropyrido[4,3-d]pyrimidin-7-yl]thiophen-3-yl}benzonitrile]: the negative logarithm of the Ki (pKi) is 6.82 in assay [1] and 7.06 in assay [2].

Take `Cc1ncc2c(n1)C[C@@](C)(c1cc(NC(=O)c3ccc(Cl)cn3)ccc1F)NC2=N` [Example 45, 5-chloro-N-{4-fluoro-3-[(7S)-5-imino-2,7-dimethyl-5,6,7,8-tetrahydropyrido[4,3-d]pyrimidin-7-yl]phenyl}pyridine-2-carboxamide]: the pKi was 7.98 in assay [1] and 8.38 in assay [2].

Consider `C[C@@]1(c2cc(-c3cncc(Cl)c3)ccc2F)Cc2ncncc2C(=N)N1` [Example 4, (7S)-7-[5-(5-chloropyridin-3-yl)-2-fluoro-phenyl]-7-methyl-7,8-dihydropyrido[4,3-d]pyrimidin-5(6H)-imine], for which the values for the pKi in assay [1] and in assay [2] were 6.60 and 6.89, respectively.
